Like-named read-outs stand apart in the source and are kept apart here.
How the values were obtained:
[1] = test system: L. donovani axenic amastigotes; assay: In vitro antileishmanial assay against L. donovani axenic amastigotes; format: cell-based; conditions: Leishmania donovani, 72 h; for IC50: read-out: L. donavani Amastigotes IC50; for IC90: read-out: L. donavani Amastigotes IC90
[2] = test system: L. donovani promastigotes; assay: In vitro antileishmanial assay against L. donovani promastigotes; format: cell-based; conditions: Leishmania donovani, 72 h; for IC50: read-out: L. donavani Promastigotes IC50; for IC90: read-out: L. donavani Promastigotes IC90
[3] = test system: L. donovani intracellular amastigotes in THP1 cells; format: cell-based, Leishmania donovani
[4] = Cytotoxicity against THP1 cell cultures; format: cell-based, human; conditions: human, THP1 cell cultures
THP1 cells = assay: Cytotoxicity against THP1 cell cultures; format: cell-based, human; conditions: THP1 cells; for IC50: read-out: THP1 cells (Cytotoxicity) IC50; for IC90: read-out: THP1 cells (Cytotoxicity) IC90
[5] = test system: L. donovani amastigotes in mouse macrophages; conditions: cited from earlier work
[6] = read-out: L. donavani Amastigotes + THP1 IC50, intracellular amastigotes in differentiated THP1 macrophages
[7] = read-out: L. donavani Amastigotes + THP1 IC90, intracellular amastigotes in differentiated THP1 macrophages

**Q.** For `C[C@@H]1[C@H](O)[C@@H](C)/C=C/C=C/C=C/C=C/C=C/C=C/C=C/[C@H](O[C@@H]2O[C@H](C)[C@@H](O)[C@H](N)[C@@H]2O)C[C@@H]2O[C@](O)(C[C@@H](O)C[C@@H](O)[C@H](O)CC[C@@H](O)C[C@@H](O)CC(=O)O[C@H]1C)C[C@H](O)[C@H]2C(=O)O` [Amphotericine B], which IC50 [1] is on record?
**A.** The IC50 was 0.79 µM.

**Q.** And the IC90 [1]?
**A.** Its IC90 is 0.959 µM.

**Q.** And the IC50 [2]?
**A.** The IC50 was 0.134 µM.

**Q.** And the IC90 [2]?
**A.** The IC90 was 0.262 µM.

**Q.** And the IC50 ([3]; Leishmania donovani, THP-1, read-out: L. donavani Amastigotes + THP1 IC50)?
**A.** The IC50 was 0.48 µM.

**Q.** And the IC90 ([3]; Leishmania donovani, THP-1, read-out: L. donavani Amastigotes + THP1 IC90)?
**A.** Its IC90 is 1.94 µM.

**Q.** What about the IC50 [4] of the same compound?
**A.** Its IC50 is > 10 µM.

**Q.** And the IC90 [4]?
**A.** The IC90 was > 10 µM.

**Q.** With `CN1CCCN2CCN(CCCN(Cc3ccccc3)CC2)CC1` [Bn1Me1Bcyclam (L2)] as the compound, how does the IC50 [3, 6] read?
**A.** The IC50 was > 20 µM.

**Q.** And the IC90 [3, 7]?
**A.** The IC90 was > 20 µM.

**Q.** What about the IC50 (THP1 cells) of the same compound?
**A.** The IC50 was > 20 µM.

**Q.** What about the IC90 (THP1 cells) of the same compound?
**A.** Its IC90 is > 20 µM.

**Q.** Which IC50 [3, 6] does the source give for `c1ccc(CN2CCN3CCN(CC2)CCN(Cc2ccccc2)CC3)cc1` [Bn2Bcyclen (L3)] here?
**A.** The IC50 was > 25 µM.

**Q.** And the IC90 [3, 7]?
**A.** The IC90 was > 25 µM.

**Q.** What about the IC50 (THP1 cells) of the same compound?
**A.** The IC50 was > 25 µM.

**Q.** And the IC90 (THP1 cells)?
**A.** Its IC90 is > 25 µM.

**Q.** Which IC50 [3, 6] does the source give for `c1ccc(CN2CCCNCCN(Cc3ccccc3)CCCNCC2)cc1` [Bn2Cyclam (L10), 1,8-dibenzylcyclam] here?
**A.** The IC50 was 12.9 µM.

**Q.** What about the IC90 [3, 7] of the same compound?
**A.** Its IC90 is 13.2 µM.

**Q.** What about the IC50 (THP1 cells) of the same compound?
**A.** Its IC50 is > 25 µM.

**Q.** What about the IC90 (THP1 cells) of the same compound?
**A.** Its IC90 is > 25 µM.

**Q.** For `c1ccc(CN2CCN3CCCN(CC2)CCN(Cc2ccccc2)CC3)cc1` [Bn2PBCyclen (L4)], which IC50 [3, 6] is on record?
**A.** Its IC50 is 18.2 µM.

**Q.** What about the IC90 [3, 7] of the same compound?
**A.** Its IC90 is > 25 µM.

**Q.** What about the IC50 (THP1 cells) of the same compound?
**A.** Its IC50 is > 25 µM.

**Q.** And the IC90 (THP1 cells)?
**A.** Its IC90 is > 25 µM.

**Q.** Which “concentration inhibiting growth of L. donovani amastigotes in mouse macrophages” value ([5]; mouse macrophages) does the source give for `Cl.Cl.Cl.N=C(N)c1cccc(/C=N/N=C(\N)N/N=C/c2cccc(C(=N)N)c2)c1` [CGP40215A] here?
**A.** Its value is “up to 90 μM”.

**Q.** Which “elimination of L. donovani amastigotes from mouse macrophages” value ([5]; at a 1 μM concentration) does the source give for `c1ccc(CNCCCNCCCCCCCNCCCNCc2ccccc2)cc1` [MDL27695] here?
**A.** The value was 77–100%.

**Q.** Which IC50 [1] does the source give for `N=C(N)c1ccc(OCCCCCOc2ccc(C(=N)N)cc2)cc1` [Pentamidine] here?
**A.** The IC50 was 20.4 µM.

**Q.** And the IC90 [1]?
**A.** The IC90 was > 25 µM.

**Q.** And the IC50 [2]?
**A.** Its IC50 is 2.93 µM.

**Q.** What about the IC90 [2] of the same compound?
**A.** The IC90 was 6.52 µM.

**Q.** What about the IC50 [4] of the same compound?
**A.** The IC50 was > 20 µM.

**Q.** And the IC90 [4]?
**A.** The IC90 was > 25 µM.

— publication PMC6452907 (Polyhedron, 2019)
